Measurements published in ChEMBL document CHEMBL6127079, “Design and synthesis of spiro[pyrrolidine-3,3'-quinoline]-2,2'-dione derivatives as novel antifungal agents targeting chitin synthase” (Eur J Med Chem, 2024).
Converted amounts (≈) assume the structure as drawn.

Experiments:
Aspergillus flavus [1] = assay: Synergistic antifungal activity against Aspergillus flavus ATCC 16870 assessed as fractional inhibitory concentration index in presence of fluconazole incubated for 24 hrs by half broth dilution based checkerboard method; format: functional
Aspergillus flavus [2] = assay: Antifungal activity against Aspergillus flavus ATCC 16870 assessed as Polyoxin B MIC incubated for 24 hrs in presence of fluconazole by half broth dilution based checkerboard method; format: functional
Candida albicans [3] = assay: Antifungal activity against Candida albicans ATCC 76615 incubated for 24 hrs by half broth dilution based checkerboard method; format: functional
Aspergillus fumigatus [4] = assay: Antifungal activity against Aspergillus fumigatus GIMCC 3.19 assessed as inhibition of growth incubated for 24 hrs by two-fold serial dilution method; format: functional
Candida albicans [5] = assay: Antifungal activity against Candida albicans ATCC 76615 assessed as Polyoxin B MIC incubated for 24 hrs in presence of fluconazole by half broth dilution based checkerboard method; format: functional
Aspergillus flavus [6] = assay: Antifungal activity against Aspergillus flavus ATCC 16870 incubated for 24 hrs by half broth dilution based checkerboard method; format: functional
Candida tropicalis = assay: Inhibition of chitin synthase extracted from Candida tropicalis ATCC 750 using UDP-GlcNAc as substrate assessed as inhibition rate at 300 ug/ml by TMB based microplate analyzer relative to control; details: dose 300.0 µg/ml
Cryptococcus neoformans [7] = assay: Antifungal activity against Cryptococcus neoformans ATCC 32719 assessed as inhibition of growth incubated for 24 hrs by two-fold serial dilution method; format: functional
Candida albicans [8] = assay: Antifungal activity against fluconazole-resistant Candida albicans ATCC 76615 assessed as inhibition of fungal growth incubated for 24 to 72 hrs; format: functional; details: time 24-72 hrs
Candida albicans [9] = assay: Antifungal activity against Candida albicans ATCC 76615 assessed as fluconazole MIC incubated for 24 hrs in presence of fluconazole by half broth dilution based checkerboard method; format: functional
Aspergillus flavus [10] = assay: Antifungal activity against Aspergillus flavus ATCC 16870 assessed as inhibition of growth incubated for 24 hrs by two-fold serial dilution method; format: functional
Aspergillus flavus [11] = assay: Synergistic antifungal activity against Aspergillus flavus ATCC 16870 assessed as fractional inhibitory concentration index in presence of Polyoxin B incubated for 24 hrs by half broth dilution based checkerboard method; format: functional
Candida albicans [12] = assay: Antifungal activity against drug-resistant Candida albicans ATCC 76615 assessed as inhibition of cell wall synthesis in presence of sorbitol incubated for 24 hrs; format: functional
Aspergillus fumigatus [13] = assay: Synergistic antifungal activity against Aspergillus fumigatus GIMCC 3.19 assessed as fractional inhibitory concentration index in presence of fluconazole incubated for 24 hrs by half broth dilution based checkerboard method; format: functional
Candida albicans [14] = assay: Antifungal activity against micafungin-resistant Candida albicans ATCC 76615 assessed as inhibition of fungal growth incubated for 24 to 72 hrs; format: functional; details: time 24-72 hrs
Aspergillus fumigatus [15] = assay: Antifungal activity against Aspergillus fumigatus GIMCC 3.19 assessed as Polyoxin B MIC incubated for 24 hrs in presence of fluconazole by half broth dilution based checkerboard method; format: functional
Aspergillus fumigatus [16] = assay: Synergistic antifungal activity against Aspergillus fumigatus GIMCC 3.19 assessed as fractional inhibitory concentration index in presence of Polyoxin B incubated for 24 hrs by half broth dilution based checkerboard method; format: functional
Aspergillus flavus [17] = assay: Antifungal activity against drug-resistant Aspergillus flavus ATCC 16870 assessed as inhibition of cell wall synthesis in presence of sorbitol incubated for 24 hrs; format: functional
Aspergillus fumigatus [18] = assay: Antifungal activity against Aspergillus fumigatus GIMCC 3.19 incubated for 24 hrs by half broth dilution based checkerboard method; format: functional
Cryptococcus neoformans [19] = assay: Synergistic antifungal activity against Cryptococcus neoformans ATCC 32719 assessed as fractional inhibitory concentration index in presence of Polyoxin B incubated for 24 hrs by half broth dilution based checkerboard method; format: functional
Cryptococcus neoformans [20] = assay: Antifungal activity against drug-resistant Cryptococcus neoformans ATCC 32719 assessed as inhibition of cell wall synthesis in presence of sorbitol incubated for 24 hrs; format: functional
Cryptococcus neoformans [21] = assay: Antifungal activity against Cryptococcus neoformans ATCC 32719 assessed as Polyoxin B MIC incubated for 24 hrs in presence of fluconazole by half broth dilution based checkerboard method; format: functional
Candida albicans [22] = assay: Antifungal activity against Candida albicans ATCC 76615 assessed as inhibition of growth incubated for 24 hrs by two-fold serial dilution method; format: functional
Aspergillus fumigatus [23] = assay: Antifungal activity against drug-resistant Aspergillus fumigatus GIMCC 3.19 assessed as inhibition of cell wall synthesis in presence of sorbitol incubated for 24 hrs; format: functional
Cryptococcus neoformans [24] = assay: Antifungal activity against Cryptococcus neoformans ATCC 32719 incubated for 24 hrs by half broth dilution based checkerboard method; format: functional
Aspergillus flavus [25] = assay: Antifungal activity against fluconazole-resistant Aspergillus flavus ATCC 16870 assessed as inhibition of fungal growth incubated for 24 to 72 hrs; format: functional; details: time 24-72 hrs
Aspergillus fumigatus [26] = assay: Antifungal activity against fluconazole-resistant Aspergillus fumigatus GIMCC 3.19 assessed as inhibition of fungal growth incubated for 24 to 72 hrs; format: functional; details: time 24-72 hrs
Aspergillus flavus [27] = assay: Antifungal activity against Aspergillus flavus ATCC 16870 assessed as fluconazole MIC incubated for 24 hrs in presence of fluconazole by half broth dilution based checkerboard method; format: functional
Cryptococcus neoformans [28] = assay: Antifungal activity against Cryptococcus neoformans ATCC 32719 assessed as fluconazole MIC incubated for 24 hrs in presence of fluconazole by half broth dilution based checkerboard method; format: functional
Cryptococcus neoformans [29] = assay: Antifungal activity against fluconazole-resistant Cryptococcus neoformans ATCC 32719 assessed as inhibition of fungal growth incubated for 24 to 72 hrs; format: functional; details: time 24-72 hrs
Cryptococcus neoformans [30] = assay: Synergistic antifungal activity against Cryptococcus neoformans ATCC 32719 assessed as fractional inhibitory concentration index in presence of fluconazole incubated for 24 hrs by half broth dilution based checkerboard method; format: functional
Candida albicans [31] = assay: Synergistic antifungal activity against Candida albicans ATCC 76615 assessed as fractional inhibitory concentration index in presence of fluconazole incubated for 24 hrs by half broth dilution based checkerboard method; format: functional
Aspergillus fumigatus [32] = assay: Antifungal activity against Aspergillus fumigatus GIMCC 3.19 assessed as fluconazole MIC incubated for 24 hrs in presence of fluconazole by half broth dilution based checkerboard method; format: functional
Candida albicans [33] = assay: Synergistic antifungal activity against Candida albicans ATCC 76615 assessed as fractional inhibitory concentration index in presence of Polyoxin B incubated for 24 hrs by half broth dilution based checkerboard method; format: functional
[34] = Inhibition of chitin synthase extracted from Candida tropicalis ATCC 750 using UDP-GlcNAc as substrate assessed as inhibition rate by TMB based microplate analyzer relative to control

SMILES: O=C(CN1CCC(C(=O)Nc2cccc3ccccc23)CC1)Nc1ccc2c(c1)NC(=O)C1(CCNC1=O)C2 (racemic)
- fractional inhibitory concentration index (FICI) (Aspergillus flavus [1]): 0.75
- MIC (Aspergillus flavus [2]): 8 µg/mL
- MIC (Candida albicans [3]): 16 µg/mL
- MIC (Aspergillus fumigatus [4]): 8 µg/mL (≈ 15.2 µM)
- MIC (Candida albicans [5]): 16 µg/mL
- MIC (Aspergillus flavus [6]): 8 µg/mL
- inhibition (Candida tropicalis): 84%
- MIC (Cryptococcus neoformans [7]): 32 µg/mL (≈ 60.9 µM)
- MIC (Candida albicans [8]): 32 µg/mL (≈ 60.9 µM)
- MIC (Candida albicans [9]): 1 µg/mL
- MIC (Aspergillus flavus [10]): 8 µg/mL (≈ 15.2 µM)
- fractional inhibitory concentration index (FICI) (Aspergillus flavus [11]): 2
- MIC (Candida albicans [12]): 256 µg/mL
- fractional inhibitory concentration index (FICI) (Aspergillus fumigatus [13]): 1
- MIC (Candida albicans [14]): 32 µg/mL (≈ 60.9 µM)
- MIC (Aspergillus fumigatus [15]): 8 µg/mL
- fractional inhibitory concentration index (FICI) (Aspergillus fumigatus [16]): 1.5
- MIC (Aspergillus flavus [17]): 128 µg/mL
- MIC (Aspergillus fumigatus [18]): 8 µg/mL
- fractional inhibitory concentration index (FICI) (Cryptococcus neoformans [19]): 1
- MIC (Cryptococcus neoformans [20]): 512 µg/mL
- MIC (Cryptococcus neoformans [21]): 32 µg/mL
- MIC (Candida albicans [22]): 16 µg/mL (≈ 30.4 µM)
- MIC (Aspergillus fumigatus [23]): 512 µg/mL
- MIC (Cryptococcus neoformans [24]): 2 µg/mL
- MIC (Aspergillus flavus [25]): 64 µg/mL (≈ 122 µM)
- MIC (Aspergillus fumigatus [26]): 64 µg/mL (≈ 122 µM)
- MIC (Aspergillus flavus [27]): 1.5 µg/mL
- MIC (Cryptococcus neoformans [28]): 0.75 µg/mL
- MIC (Cryptococcus neoformans [29]): 64 µg/mL (≈ 122 µM)
- fractional inhibitory concentration index (FICI) (Cryptococcus neoformans [30]): 1
- fractional inhibitory concentration index (FICI) (Candida albicans [31]): 0.75
- MIC (Aspergillus fumigatus [32]): 2 µg/mL
- fractional inhibitory concentration index (FICI) (Candida albicans [33]): 0.75
- IC50 [34]: 99 µM

SMILES: O=C(CN1CCC(C(=O)Nc2cccc(Br)c2)CC1)Nc1ccc2c(c1)NC(=O)C1(CCNC1=O)C2 (racemic)
- fractional inhibitory concentration index (FICI) (Aspergillus flavus [1]): 0.625
- MIC (Aspergillus flavus [2]): 32 µg/mL
- MIC (Candida albicans [3]): 16 µg/mL
- MIC (Aspergillus fumigatus [4]): 32 µg/mL (≈ 57.7 µM)
- MIC (Candida albicans [5]): 16 µg/mL
- MIC (Aspergillus flavus [6]): 32 µg/mL
- inhibition (Candida tropicalis): 80.6%
- MIC (Cryptococcus neoformans [7]): 8 µg/mL (≈ 14.4 µM)
- MIC (Candida albicans [8]): 32 µg/mL (≈ 57.7 µM)
- MIC (Candida albicans [9]): 1 µg/mL
- MIC (Aspergillus flavus [10]): 32 µg/mL (≈ 57.7 µM)
- fractional inhibitory concentration index (FICI) (Aspergillus flavus [11]): 1.25
- MIC (Candida albicans [12]): 128 µg/mL
- fractional inhibitory concentration index (FICI) (Aspergillus fumigatus [13]): 0.75
- MIC (Candida albicans [14]): 64 µg/mL (≈ 115 µM)
- MIC (Aspergillus fumigatus [15]): 32 µg/mL
- fractional inhibitory concentration index (FICI) (Aspergillus fumigatus [16]): 0.75
- MIC (Aspergillus flavus [17]): 256 µg/mL
- MIC (Aspergillus fumigatus [18]): 32 µg/mL
- fractional inhibitory concentration index (FICI) (Cryptococcus neoformans [19]): 1
- MIC (Cryptococcus neoformans [20]): 256 µg/mL
- MIC (Cryptococcus neoformans [21]): 8 µg/mL
- MIC (Candida albicans [22]): 16 µg/mL (≈ 28.9 µM)
- MIC (Aspergillus fumigatus [23]): 256 µg/mL
- MIC (Cryptococcus neoformans [24]): 8 µg/mL
- MIC (Aspergillus flavus [25]): 32 µg/mL (≈ 57.7 µM)
- MIC (Aspergillus fumigatus [26]): 64 µg/mL (≈ 115 µM)
- MIC (Aspergillus flavus [27]): 1.25 µg/mL
- MIC (Cryptococcus neoformans [28]): 0.75 µg/mL
- MIC (Cryptococcus neoformans [29]): 32 µg/mL (≈ 57.7 µM)
- fractional inhibitory concentration index (FICI) (Cryptococcus neoformans [30]): 1.5
- fractional inhibitory concentration index (FICI) (Candida albicans [31]): 1.25
- MIC (Aspergillus fumigatus [32]): 1 µg/mL
- fractional inhibitory concentration index (FICI) (Candida albicans [33]): 1.5
- IC50 [34]: 101 µM
